Laboratory results published in patent US9462803B2, “Organ preservation and/or perfusion” (Philadelphia College of Osteopathic Medicine, priority 2005, dated 2016).
“Also recorded” adds a separate entry of the source. Where no end group is shown, it is not given here.

Tests used:
rat aortic endothelium = assay: NO release from rat aortic endothelium; details: basal 2.12±0.39
Method: FIG. 7 is a graph showing NO release from rat aortic endothelium in untreated (basal) segments compared to PKC ε peptide inhibitor treated segments (1, 5, and 10 μM).
FIG. 7 illustrates the NO release from rat aortic endothelium in untreated (basal) segments compared to PKC ε peptide inhibitor treated segments (1-10 μM). Acetylcholine (Ach) (10 μM) was used as a positive control. […] Although augmenting endothelial derived NO is usually associated with cardioprotection following I/R, it is speculated that the enzyme responsible for endothelial NO release (eNOS) may shift its product profile to the production of superoxide release when the substrate (L-arginine) or co-factor (BH4) is not readily available during early reperfusion.

[1] = test system: isolated perfused rat hearts; assay: Isolated perfused rat heart ischemia/reperfusion (I/R) cardiac function, with or without PMNs; details: for cardioprotection: I/R+PMN
Method: Male Sprague Dawley rats (275-325 g, Ace Animals, Boyertown, Pa.) were anesthetized with 60 mg/kg pentobarbital sodium intraperitoneally (i.p.). Sodium heparin (1,000 U) was also administered i.p. The hearts were rapidly excised, the ascending aortas were cannulated, and retrograde perfusion of the heart was initiated with a modified Krebs buffer maintained at 37° C. at a constant pressure of 80 mmHg. The Krebs buffer had the following composition (in mmol/l): 17 dextrose, 120 NaCl, 25 NaHCO3, 2.5 CaCl2, 0.5 EDTA, 5.9 KCl, and 1.2 MgCl2. The perfusate was aerated with 95% O2 and 5% CO2 and equilibrated at a pH of 7.3-7.4. The two side arms in the perfusion line proximal to the heart inflow cannula allowed PMNs, plasma without PKC ε peptide inhibitor (control hearts) or plasma containing different concentrations of PKC ε peptide inhibitor (1 or 5 μM) to be directly infused into the coronary inflow line. Coronary flow was monitored by a flow meter (T106, Transonic System, Inc., Ithaca, N.Y.). LVDP and +dP/dtmax were monitored using a pressure transducer (SPR-524, Millar Instruments, Inc., Houston, Tex.), which was positioned in the left ventricular cavity. Hearts were immersed in a water-jacketed reservoir containing 160 mL of Krebs buffer maintained at 37° C. Coronary flow, LVDP and +dP/dtmax were recorded using a Powerlab Station acquisition system (ADInstruments, Grand Junction, Colo.) in conjunction with a computer.
LVDP, +dP/dtmax, and coronary flow were measured every 5 min for 15 min to equilibrate the hearts and obtain a baseline measurement. LVDP was defined as left ventricular end-systolic pressure minus left ventricular end-diastolic pressure. After 15 min, the flow of the Krebs buffer was reduced to zero for 20 min to induce global ischemia. At reperfusion, hearts were infused for 5 min with 200×10^6 PMN resuspended in 5 mL of Krebs buffer plus 5 mL of plasma at a rate of 1 mL/min. In some experiments, PKC ε peptide inhibitor (Genemed Synthesis, Inc., San Francisco, Calif.) was added to plasma at a final concentration of 1 or 5 μM. Sham I/R hearts were not subjected to ischemia and were not perfused with PMNs.
The following groups of isolated perfused rat hearts were used:
Group 1: Sham I/R hearts were not subjected to ischemia and were not perfused with PMNs, but were perfused with 5 mL of plasma (1 mL/min) at 35 minutes into perfusion (the same time point that I/R hearts would be given 5 mL of plasma, 15 minutes of baseline recordings plus 20 minutes ischemia). These hearts represented a control group to determine if the isolated rat heart can maintain LVDP and +dP/dtmax throughout the 80-minute protocol (n=6).
Group 2: Sham I/R+PKC ε peptide inhibitor (5 μM) hearts were not subjected to ischemia and not perfused with PMNs. These hearts were administered the PKC ε peptide inhibitor (5 μM, dissolved in plasma from a 5 mM stock in H2O) 35 minutes into perfusion. This group was employed to determine if the PKC ε peptide inhibitor causes a cardiotonic or cardiodepressant effect (n=6).
Group 3: I/R hearts were subjected to 20 min of ischemia and perfused with 5 mL of plasma (1 mL/min) during the first 5 min of reperfusion, but were not perfused with PMNs. These hearts represented a control group to determine if 20 min of ischemia followed by reperfusion stunned the heart, but LVDP and +dP/dtmax will recover to baseline values (initial) by the end of the 45-minute reperfusion period (n=7).
Group 4: I/R+PKC ε peptide inhibitor (5 μM, dissolved in plasma) hearts were subjected to 20 min of ischemia and not perfused with PMNs. These hearts were perfused with 5 mL of plasma+PKC ε peptide inhibitor during the first 5 min of reperfusion. This group was employed to determine if the PKC ε peptide inhibitor causes a cardiodepressant effect in the setting of I/R without PMNs (n=6). […]

[2] = I/R hearts without PMNs + inhibitor 5 μM
[3] = Sham I/R hearts (no ischemia, no PMNs) + inhibitor 5 μM, end of 80 min perfusion

PKC ε peptide inhibitor: Peptide inhibitor of PKC ε (Genemed Synthesis); preferred sequence EAVSLKPT (SEQ ID NO: 1), preferably myristoylated at the N-terminus (not fully specified (N-terminus); listed as Homo sapiens)
NO release (rat aortic endothelium; 5 μM, p<0.05): 0.66±0.28 pmoles/mg tissue | NO release (rat aortic endothelium; 10 μM): 0.26±0.42 pmoles/mg tissue | change in +dP/dtmax, initial vs final [1, 2]: no significant difference | change in LVDP, initial vs final [1, 2]: no significant difference | final LVEDP ([1]; I/R+PMN+inhibitor (5 μM), end of 45 min reperfusion, p<0.01 vs I/R+PMN): 16±2 mmHg | cardioprotection ([1]; 1 μM dose): not cardioprotective | cardioprotection ([1]; 5 μM dose): most cardioprotective | change in +dP/dtmax, initial vs final [1, 3]: did not show any significant change; also recorded: no significant difference | change in LVDP, initial vs final [1, 3]: did not show any significant change; also recorded: no significant difference | direct effect on cardiac contractile function ([1]; Sham I/R hearts, 5 μM): no direct effect
